{
  "source": "patent US12605432B2",
  "about": "“Combinations for antigen based therapy” (Diamyd Medical AB, priority 2014, dated 2026)",
  "origin": "cited, not measured here",
  "key": {"[1]": {"test_system": "residual insulin secretion in T1D patients", "conditions": "in vivo"}, "[2]": {"test_system": "blood glucose (BG) concentrations in patients", "conditions": "diabetic and nondiabetic patients in general clinical practice"}, "[3]": {"test_system": "high risk individuals"}, "[4]": {"test_system": "macrophage cultures"}, "[5]": {"test_system": "T1D in NOD mice", "conditions": "mouse, in vivo"}, "[6]": {"test_system": "DCs", "conditions": "decreased CD40, CD80, CD86, low IL-12, enhanced IL-10 secretion"}, "[7]": {"test_system": "mouse islet allografts; autoimmune diabetes"}, "[8]": {"test_system": "B cells, dendritic cells and T cells"}, "[9]": {"test_system": "dendritic cells (DCs)"}},
  "note": "Like-named read-outs stand apart in the source and are kept apart here.",
  "data": [
    {"compound": "NC(=O)c1cccnc1", "note": "[nicotinamide]", "values": [
      {"measurement": "effect of protective agents", "setting": "[1]", "value": "no or transient effect"}
    ]},
    {"compound": "CNC(=O)c1cc(Oc2ccc(NC(=O)Nc3ccc(Cl)c(C(F)(F)F)c3)cc2)ccn1", "note": "[sorafenib]", "values": [
      {"measurement": "blood glucose (BG)", "setting": "[2]", "value": "significant declines in BG"}
    ]},
    {"compound": "Insulin: β cell specific auto-antigen", "values": [
      {"measurement": "prevention of diabetes", "setting": "[3]; oral administration", "value": "may have a slight effect"},
      {"measurement": "prevention of diabetes", "setting": "[3]; parenteral administration (DPT)", "value": "no effect"}
    ]},
    {"compound": "Cc1ccc(NC(=O)c2ccc(CN3CCN(C)CC3)cc2)cc1Nc1nccc(-c2cccnc2)n1", "note": "[imatinib]", "values": [
      {"measurement": "IL-10 secretion", "setting": "[4]", "value": "induced secretion of anti-inflammatory IL-10"},
      {"measurement": "effect on T1D in NOD mice", "setting": "[5]", "value": "prevented and reversed T1D"}
    ]},
    {"compound": "C=C1/C(=C\\C=C2/CCC[C@]3(C)[C@@H]([C@H](C)CCCC(C)(C)O)CC[C@@H]23)C[C@@H](O)C[C@@H]1O", "note": "[1,25-Dihydroxyvitamin D(3)]", "values": [
      {"measurement": "DC phenotype", "setting": "[6]", "value": "induces DCs with a tolerogenic phenotype"},
      {"measurement": "tolerance to islet allografts", "setting": "[7]; mouse", "value": "induced tolerance to mouse islet allografts"},
      {"measurement": "diabetes development", "setting": "[7]; non-hypercalcemic doses", "value": "inhibited diabetes development"},
      {"measurement": "expression of IL-10 by dendritic cells and T cells", "setting": "[8]", "value": "enhances"},
      {"measurement": "expression of IgE by B cells", "setting": "[8]", "value": "inhibits"}
    ]},
    {"compound": "FC(F)(F)c1ccc(CNc2ccc(Cc3c[nH]c4ncccc34)cn2)cc1", "note": "[PLX647]", "values": [
      {"measurement": "effect on T1D in NOD mice", "setting": "[5]", "value": "only marginal efficacy"}
    ]},
    {"compound": "CC(C)Cc1ccc(C(C)C(=O)O)cc1", "note": "(stereo not shown) [ibuprofen]", "values": [
      {"measurement": "expression level of total MHC molecules and co-stimulatory molecules on DCs", "setting": "[9]", "value": "increased"},
      {"measurement": "phagocytic activity of DCs", "setting": "[9]", "value": "did not inhibit"},
      {"measurement": "MHC class I and class II-restricted presentation of antigen", "setting": "[9]; dendritic cells", "value": "inhibit MHC class I and class II-restricted presentation of antigen"}
    ]},
    {"compound": "CC1=NS(=O)(=O)c2cc(Cl)ccc2N1", "note": "[diazoxide]", "values": [
      {"measurement": "effect of protective agents", "setting": "[1]", "value": "no or transient effect"}
    ]}
  ]
}
